In US20130195919A1, “INDUCED DENDRITIC CELL COMPOSITIONS AND USES THEREOF” (PRESIDENT AND FELLOWS OF HARVARD COLLEGE, priority 2010, published 2013):

Key:
DC [1] = experiment: Oxygen consumption rate (OCR) of DC; format: cell-based, mouse; conditions: 2 h activation; oATP with or without LPS co-treatment
Procedure: Mitochondria oxygen consumption rate (OCR) was measured by using a YSI 5300 Clark-type electrode (Yellow Springs Instrument, Yellow Springs, Ohio, USA) or the XF24 Extracellular Flux Analyzer (Seahorse Bioscience, Billerica, Mass.) following the manufacturer's protocol. Primary cultured DC (10^6 cells/well) were used as described in the experiments.
The effect of the activation of DC on the O2 consumption rate (OCR) was tested to attempt to correlate increased OCR with increased immunogenicity.
(§1) The effect of direct inhibition of mitochondrial respiration, by an inhibitor of mitochondrial respiratory complex I, rotenone, was tested. […] Control DC were treated with LPS without OVA pulsing. T cell proliferation was analyzed by CFSE dilution on D3.

DC [2] = experiment: DC maturation marker expression by FACS; format: cell-based, mouse; conditions: 100 μM, 6 hours
Procedure: DC were isolated and kept for 6 hours at 4 degrees (ctrlDC 4C) or culture to produce ctrlDC (37C), lpsDC itDC and it/lpsDC. Simultaneously cells were treated with the purinergic receptor agonists ATP (1 mM) and Bz-ATP (100 μM), purinergic receptors antagonists oxidized ATP (oATP, 100 μM) and suranim (100 μM), the adenosine monophosphate kinase (AMPK) stimulator AICAR (100 μM) and the enzyme Apyrase (200 U/ml) that catalyses ATP. Cells were harvested after 6 hours and the expression of the indicated markers was assessed by FACS.

DC [3] = experiment: Ex vivo Treg differentiation: Foxp3 induction in Tn by treated DC; format: cell-based, mouse
DC [4] = tested on: DC
DC [5] = experiment: DC immunogenicity: OT-II T cell proliferation by CFSE dilution; format: cell-based, mouse; conditions: LPS plus 1 mM rotenone; CFSE dilution on D3
Procedure: as §1

Molecule	OCR of DC (DC [1])	DC maturation (expression of markers) (DC [2])	other results
Periodate-oxidized ATP [oATP]	reduced OCR	block DC maturation	capacity to imprint DC with tolerogenic potential (percentages of Foxp3 and CD25 expressing cells) (DC [3]; DC incubated 2 hours, oATP 100 μM, 5 days in coculture): significantly imprints DC with tolerogenic potential; tolerogenic capacity compared with the combination of rapamycin and TGFβ (DC [3]; oATP 100 μM vs rapamycin 10 nM and TGFβ 2 ng/ml): matches or exceeds
C=C(C)[C@H]1Cc2c(ccc3c2O[C@@H]2COc4cc(OC)c(OC)cc4[C@@H]2C3=O)O1 [rotenone]	–	–	toxicity to DC (maturation markers CD80, C86, MHC-II and migration to CCL21) (DC [4]): not toxic to DC; T cell proliferation induced by antigen pulsed, LPS matured DC (DC [5]): induced much less T cell proliferation
Nc1ncnc2c1ncn2[C@@H]1O[C@H](COP(=O)(O)OP(=O)(O)OP(=O)(O)O)[C@@H](O)[C@H]1O [ATP, adenosine triphosphate]	enhanced OCR levels in DCs	–	–
NC(=O)c1ncn([C@@H]2O[C@H](CO)[C@@H](O)[C@H]2O)c1N [AICAR, 5-aminoimidazole-4-carboxamide-1-β-4-ribofuranoside]	–	block DC maturation	–
